From patent publication US9125913B2, “Bcl-2-selective apoptosis-inducing agents for the treatment of cancer and immune diseases” (AbbVie Inc., priority 2008, dated 2015)

Test system: GST-Bcl-2
Test: TR-FRET binding assay, Bcl-2
Conditions: TR-FRET Ki values
Outline: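 Ki values come from Wang's competitive-binding equation applied to TR-FRET signal (excitation 340/35 nm; emission 520/525 nm F-Bak peptide, 495/510 nm Tb antibody). Protein, probe and antibody incubated with compound 3 h at room temperature; dilution series began at 50 μM as 2× stock in 10% DMSO.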

SMILES	Binding selectivity ratio (Bcl-XL Ki/Bcl-2 Ki)
CC1(C)CCC(CN2CCN(c3ccc(C(=O)NS(=O)(=O)c4cnc(OCC5(F)CCOCC5)c(F)c4)c(Oc4cccc5[nH]cnc45)c3)CC2)=C(c2ccc(Cl)cc2)C1 [EXAMPLE 442, 2-(1H-benzimidazol-4-yloxy)-4-(4-{[2-(4-chlorophenyl)-4,4-dimethylcyclohex-1-en-1-yl]methyl}piperazin-1-yl)-N-({5-fluoro-6-[(4-fluorotetrahydro-2H-pyran-4-yl)methoxy]pyridin-3-yl}sulfonyl)benzamide]	3358.9
COC1CCC(Nc2ccc(S(=O)(=O)NC(=O)c3ccc(N4CCN(CC5=C(c6ccc(Cl)cc6)CC(C)(C)CC5)CC4)cc3Oc3ccc4[nH]ccc4c3)cc2[N+](=O)[O-])CC1 (stereo not shown) [EXAMPLE 265, 4-(4-{[2-(4-chlorophenyl)-4,4-dimethylcyclohex-1-en-1-yl]methyl}piperazin-1-yl)-2-(1H-indol-5-yloxy)-N-({4-[(4-methoxycyclohexyl)amino]-3-nitrophenyl}sulfonyl)benzamide]	>388.8
CC1(C)CCC(CN2CCN(c3ccc(C(=O)NS(=O)(=O)c4ccc(Nc5ccc(O)cc5)c([N+](=O)[O-])c4)c(Oc4ccc5[nH]ccc5c4)c3)CC2)=C(c2ccc(Cl)cc2)C1 [EXAMPLE 375, 4-(4-{[2-(4-chlorophenyl)-4,4-dimethylcyclohex-1-en-1-yl]methyl}piperazin-1-yl)-N-({4-[(4-hydroxyphenyl)amino]-3-nitrophenyl}sulfonyl)-2-(1H-indol-5-yloxy)benzamide]	>58.6
CC1(C)CCC(CN2CCN(c3ccc(C(=O)NS(=O)(=O)c4ccc(NCCN5CCNC(=O)C5)c([N+](=O)[O-])c4)c(Oc4ccc5[nH]ccc5c4)c3)CC2)=C(c2ccc(Cl)cc2)C1 [EXAMPLE 273, 4-(4-{[2-(4-chlorophenyl)-4,4-dimethylcyclohex-1-en-1-yl]methyl}piperazin-1-yl)-2-(1H-indol-5-yloxy)-N-[(3-nitro-4-{[2-(3-oxopiperazin-1-yl)ethyl]amino}phenyl)sulfonyl]benzamide]	2396.1
CC1(C)CCC(CN2CCN(c3ccc(C(=O)NS(=O)(=O)c4ccc(NC5CCN(c6nccs6)CC5)c([N+](=O)[O-])c4)c(Oc4ccc5[nH]ccc5c4)c3)CC2)=C(c2ccc(Cl)cc2)C1 [EXAMPLE 212, 4-(4-{[2-(4-chlorophenyl)-4,4-dimethylcyclohex-1-en-1-yl]methyl}piperazin-1-yl)-2-(1H-indol-5-yloxy)-N-[(3-nitro-4-{[1-(1,3-thiazol-2-yl)piperidin-4-yl]amino}phenyl)sulfonyl]benzamide]	>895.1
CC1(C)CCC(CN2CCN(c3ccc(C(=O)NS(=O)(=O)c4cnc(OCC5(F)CCOCC5)c(Cl)c4)c(Oc4cccc5[nH]ccc45)c3)CC2)=C(c2ccc(Cl)cc2)C1 [EXAMPLE 405, N-({5-chloro-6-[(4-fluorotetrahydro-2H-pyran-4-yl)methoxy]pyridin-3-yl}sulfonyl)-4-(4-{[2-(4-chlorophenyl)-4,4-dimethylcyclohex-1-en-1-yl]methyl}piperazin-1-yl)-2-(1H-indol-4-yloxy)benzamide]	1395
CN1CC(Nc2ccc(S(=O)(=O)NC(=O)c3ccc(N4CCN(CC5=C(c6ccc(Cl)cc6)CC(C)(C)CC5)CC4)cc3Oc3ccc4[nH]ccc4c3)cc2[N+](=O)[O-])CCC1=O (stereo not shown) [EXAMPLE 282, 4-(4-{[2-(4-chlorophenyl)-4,4-dimethylcyclohex-1-en-1-yl]methyl}piperazin-1-yl)-2-(1H-indol-5-yloxy)-N-({4-[(1-methyl-6-oxopiperidin-3-yl)amino]-3-nitrophenyl}sulfonyl)benzamide]	3434.4
CN1CCC(Nc2ccc(S(=O)(=O)NC(=O)c3ccc(N4CCN(CC5=C(c6ccc(Cl)cc6)CC(C)(C)CC5)CC4)cc3Oc3cccc4c3CCN4)cc2[N+](=O)[O-])CC1 [EXAMPLE 395, 4-(4-{[2-(4-chlorophenyl)-4,4-dimethylcyclohex-1-en-1-yl]methyl}piperazin-1-yl)-2-(2,3-dihydro-1H-indol-4-yloxy)-N-({4-[(1-methylpiperidin-4-yl)amino]-3-nitrophenyl}sulfonyl)benzamide]	23.62
CC1(C)CCC(CN2CCN(c3ccc(C(=O)NS(=O)(=O)c4ccc(NC5CCOCC5)c([N+](=O)[O-])c4)c(Oc4ccc5[nH]ccc5c4)c3)CC2)=C(c2ccc(Cl)cc2)C1 [EXAMPLE 263, 4-(4-{[2-(4-chlorophenyl)-4,4-dimethylcyclohex-1-en-1-yl]methyl}piperazin-1-yl)-2-(1H-indol-5-yloxy)-N-{[3-nitro-4-(tetrahydro-2H-pyran-4-ylamino)phenyl]sulfonyl}benzamide]	>2090.0
O=C(NS(=O)(=O)c1ccc(NCC2CCOCC2)c(S(=O)(=O)C(F)(F)F)c1)c1ccc(N2CCN(Cc3ccccc3-c3ccc(Cl)cc3)CC2)cc1Oc1ccc2ccccc2c1 [Example 37, 4-{4-[(4′-chloro-1,1′-biphenyl-2-yl)methyl]piperazin-1-yl}-2-(2-naphthyloxy)-N-({4-[(tetrahydro-2H-pyran-4-ylmethyl)amino]-3-[(trifluoromethyl)sulfonyl]phenyl}sulfonyl)benzamide]	95.7
CC(=O)N1CCC(Nc2ccc(S(=O)(=O)NC(=O)c3ccc(N4CCN(CC5=C(c6ccc(Cl)cc6)CC(C)(C)CC5)CC4)cc3Oc3cccc4[nH]ccc34)cc2[N+](=O)[O-])CC1 [EXAMPLE 337, N-({4-[(1-acetylpiperidin-4-yl)amino]-3-nitrophenyl}sulfonyl)-4-(4-{[2-(4-chlorophenyl)-4,4-dimethylcyclohex-1-en-1-yl]methyl}piperazin-1-yl)-2-(1H-indol-4-yloxy)benzamide]	>1233.3
CC1(C)CCC(CN2CCN(c3ccc(C(=O)NS(=O)(=O)c4ccc(NCC5CCOCC5)c([N+](=O)[O-])c4)c(Oc4cccc5[nH]ncc45)c3)CC2)=C(c2ccc(Cl)cc2)C1 [EXAMPLE 400, 4-(4-{[2-(4-chlorophenyl)-4,4-dimethylcyclohex-1-en-1-yl]methyl}piperazin-1-yl)-2-(1H-indazol-4-yloxy)-N-({3-nitro-4-[(tetrahydro-2H-pyran-4-ylmethyl)amino]phenyl}sulfonyl)benzamide]	>3643.8
COCCCNc1ccc(S(=O)(=O)NC(=O)c2ccc(N3CCN(CC4=C(c5ccc(Cl)cc5)CC(C)(C)CC4)CC3)cc2Oc2ccc3[nH]ccc3c2)cc1[N+](=O)[O-] [EXAMPLE 317, 4-(4-{[2-(4-chlorophenyl)-4,4-dimethylcyclohex-1-en-1-yl]methyl}piperazin-1-yl)-2-(1H-indol-5-yloxy)-N-({4-[(3-methoxypropyl)amino]-3-nitrophenyl}sulfonyl)benzamide]	>235.9
CN1CC[C@H](Nc2ccc(S(=O)(=O)NC(=O)c3ccc(N4CCN(CC5=C(c6ccc(Cl)cc6)CC(C)(C)CC5)CC4)cc3Oc3ccc4[nH]ccc4c3)cc2[N+](=O)[O-])C1 [EXAMPLE 234, 4-(4-{[2-(4-chlorophenyl)-4,4-dimethylcyclohex-1-en-1-yl]methyl}piperazin-1-yl)-2-(1H-indol-5-yloxy)-N-[(4-{[(3S)-1-methylpyrrolidin-3-yl]amino}-3-nitrophenyl)sulfonyl]benzamide]	66.3
CN(C)CC(=O)N1CCO[C@@H](COc2ncc(S(=O)(=O)NC(=O)c3ccc(N4CCN(CC5=C(c6ccc(Cl)cc6)CC(C)(C)CC5)CC4)cc3Oc3cccc4[nH]cnc34)cc2Cl)C1 [EXAMPLE 424, 2-(1H-benzimidazol-4-yloxy)-N-[(5-chloro-6-{[(2R)-4-(N,N-dimethylglycyl)morpholin-2-yl]methoxy}pyridin-3-yl)sulfonyl]-4-(4-{[2-(4-chlorophenyl)-4,4-dimethylcyclohex-1-en-1-yl]methyl}piperazin-1-yl)benzamide]	782.52
CC1(C)CCC(CN2CCN(c3ccc(C(=O)NS(=O)(=O)c4ccc(NCC5(N)CCCCC5)c([N+](=O)[O-])c4)c(Oc4ccc5[nH]ccc5c4)c3)CC2)=C(c2ccc(Cl)cc2)C1 [EXAMPLE 250, N-[(4-{[(1-aminocyclohexyl)methyl]amino}-3-nitrophenyl)sulfonyl]-4-(4-{[2-(4-chlorophenyl)-4,4-dimethylcyclohex-1-en-1-yl]methyl}piperazin-1-yl)-2-(1H-indol-5-yloxy)benzamide]	811
CN1CCC(COc2ccc(S(=O)(=O)NC(=O)c3ccc(N4CCN(CC5=C(c6ccc(Cl)cc6)CC(C)(C)CC5)CC4)cc3Oc3ccc4[nH]ccc4c3)cc2[N+](=O)[O-])CC1 [EXAMPLE 354, 4-(4-{[2-(4-chlorophenyl)-4,4-dimethylcyclohex-1-en-1-yl]methyl}piperazin-1-yl)-2-(1H-indol-5-yloxy)-N-({4-[(1-methylpiperidin-4-yl)methoxy]-3-nitrophenyl}sulfonyl)benzamide]	148.8
CN1CCN(CCNc2ccc(S(=O)(=O)NC(=O)c3ccc(N4CCN(CC5=C(c6ccc(Cl)cc6)CC(C)(C)CC5)CC4)cc3Oc3ccc4[nH]ccc4c3)cc2[N+](=O)[O-])CC1 [Example 95, 4-(4-{[2-(4-chlorophenyl)-4,4-dimethylcyclohex-1-en-1-yl]methyl}piperazin-1-yl)-2-(1H-indol-5-yloxy)-N-[(4-{[2-(4-methylpiperazin-1-yl)ethyl]amino}-3-nitrophenyl)sulfonyl]benzamide]	261.7
O=C(NS(=O)(=O)c1ccc(NCC2CCOCC2)c([N+](=O)[O-])c1)c1ccc(N2CCN(Cc3cc(OCCN4CCOCC4)ccc3-c3ccc(Cl)cc3)CC2)cc1Oc1ccc2[nH]ccc2c1 [Example 127, 4-(4-{[4′-chloro-4-(2-morpholin-4-ylethoxy)-1,1′-biphenyl-2-yl]methyl}piperazin-1-yl)-2-(1H-indol-5-yloxy)-N-({3-nitro-4-[(tetrahydro-2H-pyran-4-ylmethyl)amino]phenyl}sulfonyl)benzamide]	>1437.9
